Test results published in patent publication US20190233884A1 (University of Southern California, priority 2016, published 2019).

System: patients with refractory metastatic colorectal cancer (mCRC)
Assay: PFS, OS and disease control in the training (evaluation) cohort of refractory mCRC patients receiving TAS-102 (n=52, Japan), by baseline characteristics, SNP genotype and toxicity
Assay type: in vivo, human
Conditions: evaluation cohort; for HR OS (95% CI) / HR PFS (95% CI): XRCC3 rs861539 G/A vs G/G (Ref.)
Method: All patients underwent the treatment in salvage-line setting. […]
(§1) Genomic DNA was extracted from peripheral whole blood in patients of all cohorts using the QIAmp Kit (Qiagen, Valencia, Calif., USA) according to the manufacturer's protocol (www.qiagen.com). The candidate SNPs were genotyped using PCR-based direct DNA sequence analysis by ABI 3100A Capillary Genetic Analyzer and Sequencing Scanner v1.0 (Applied Biosystems). Amplification of extracted DNA was carried out using both forward and reverse primers for each gene polymorphism as shown in Table 1. […] The investigators analyzing SNPs were blinded to the clinical data of the study patients.
The primary endpoint in this study was progression-free survival (PFS), and the secondary endpoints were overall survival (OS) and disease control rate (DCR). PFS was calculated from the date of starting treatment to the first observation of disease progression or death from any cause. If a patient had no disease progression or death, PFS was censored at the date of last follow up. OS was calculated from the date of starting treatment until the date of death from any cause or the date of the last follow-up, at which point OS was censored. The disease control rate (DCR) was defined as the proportion of patients who achieved a stable disease (SD) or […] according to RECISTv1.1. Chi-square test was used to examine the difference in baseline patient characteristics among the three cohorts. Allelic distribution of all SNPs by ethnicity for deviation from Hardy-Weinberg equilibrium and the allelic frequencies of SNPs were tested using the Chi-square tests with one degree of freedom. The associations between candidate SNPs and disease control, and toxicities were examined using contingency tables and Fisher's exact test. The associations of SNPs with PFS and OS were analysed using Kaplan-Meier curves and the log-rank test. Because the true mode of inheritance of candidate SNPs was not established yet, a codominant or dominant genetic model if appropriate was considered.
All patients underwent the treatment in salvage-line setting. […] In all patients, adverse events were graded according to the Common Terminology Criteria for Adverse Events, version 4.0. […]
as §1, with “tested” for “genotyped”, “Biosystems).” for “Biosystems). Amplification of extracted DNA was carried out using both forward and reverse primers for each gene polymorphism as shown in Table 1.”, “data.” for “data of the study patients.”
The primary endpoint in this study was progression-free survival (PFS), and the secondary endpoints were overall survival (OS) and disease control rate (DCR).

[1] = Adjuvant history No vs Yes, univariate
[2] = Histology Mod-por vs well, univariate
[3] = KRAS Mutant vs Wild type, univariate
[4] = LN metastasis No vs Yes, univariate
[5] = Liver metastasis No vs Yes, univariate
[6] = Lung metastasis No vs Yes, univariate
[7] = Number of metastases >2 vs ≤2, univariate

## Trifluridine/tipiracil [TAS-102]
Pin1 rs2233679 T/T
  PD, patients n (%): 4 (57%)
RAD51 rs1801320 G/C
  Disease Control Rate SD, patients n (%): 3 (43%)
  PD, patients n (%): 4 (57%)
RAD51 rs1801320 G/G
  Disease Control Rate SD, patients n (%): 12 (31%)
  PD, patients n (%): 27 (69%)
XRCC3 rs861539 G/A
  Disease Control CR/PR/SD, patients n (%): 7 (44%)
  Median PFS (95% CI): 3.8 (1.6, 6.6) months
  OS: 15.6 months
  PD, patients n (%): 9 (56%)
multivariable
  HR OS (95% CI): 0.31 (0.09, 1.03)
  HR PFS (95% CI): 0.52 (0.24, 1.11)
univariate
  HR OS (95% CI): 0.25 (0.08, 0.79)
  HR PFS (95% CI): 0.44 (0.21, 0.92)
XRCC3 rs861539 G/G
  Disease Control CR/PR/SD, patients n (%): 8 (27%)
  Median OS (95% CI): 6.3 (4.9, 12.4+) months
  Median PFS (95% CI): 2.3 (1.9, 3.3) months
  OS: 6.3 months
  PD, patients n (%): 22 (73%)
p21 rs1059234 Any C
  Disease Control Rate SD, patients n (%): 10 (29%)
  PD, patients n (%): 25 (71%)
p21 rs1059234 C/C
  Disease Control Rate SD, patients n (%): 4 (31%)
  PD, patients n (%): 9 (69%)
p21 rs1059234 T/C
  Disease Control Rate SD, patients n (%): 6 (27%)
  PD, patients n (%): 16 (73%)
p21 rs1059234 T/T
  Disease Control Rate SD, patients n (%): 5 (45%)
  PD, patients n (%): 6 (55%)
p21 rs1801270 A/A
  Disease Control Rate SD, patients n (%): 4 (31%)
  PD, patients n (%): 9 (69%)
p21 rs1801270 A/C
  Disease Control Rate SD, patients n (%): 6 (29%)
  PD, patients n (%): 15 (71%)
p21 rs1801270 Any C
  Disease Control Rate SD, patients n (%): 11 (33%)
  PD, patients n (%): 22 (67%)
p21 rs1801270 C/C
  Disease Control Rate SD, patients n (%): 5 (42%)
  PD, patients n (%): 7 (58%)
p53 rs1042522 Any G
  Disease Control Rate SD, patients n (%): 9 (35%)
  PD, patients n (%): 17 (65%)
p53 rs1042522 C/C
  Disease Control Rate SD, patients n (%): 6 (30%)
  PD, patients n (%): 14 (70%)
p53 rs1042522 G/G
  Disease Control Rate SD, patients n (%): 2 (33%)
  PD, patients n (%): 4 (67%)
ATM rs609429, multivariable adjusted for liver metastases and adjuvant history
  HR for OS: 0.24
ATM rs609429 any G vs C/C, univariate
  HR for OS: 0.37
Adjuvant history No
  Overall Survival Median, months: 6.3 months
  Progression-Free Survival Median, months: 2.1 months
[1]
  Overall Survival HR: 2.44
  Progression-Free Survival HR: 1.90
Adjuvant history Yes
  Overall Survival Median, months: 8.7 months
  Progression-Free Survival Median, months: 3.7 months
Age <61
  Overall Survival Median, months: 8.1 months
  Progression-Free Survival Median, months: 2.2 months
Age ≥61
  Overall Survival Median, months: 6.3 months
  Progression-Free Survival Median, months: 3.0 months
Age ≥61 vs <61, univariate
  Overall Survival HR: 1.30
  Progression-Free Survival HR: 0.81
CHEK2 rs2267130 any C allele
  PFS: 3.4 months
CHEK2 rs2267130 any C vs T/T, univariate
  HR for PFS: 0.48
Histology Mod-por
  Overall Survival Median, months: 8.7 months
  Progression-Free Survival Median, months: 3.0 months
[2]
  Overall Survival HR: 0.52
  Progression-Free Survival HR: 0.94
Histology well
  Overall Survival Median, months: 6.3 months
  Progression-Free Survival Median, months: 2.1 months
KRAS Mutant
  Overall Survival Median, months: 8.3 months
  Progression-Free Survival Median, months: 3.3 months
[3]
  Overall Survival HR: 0.42
  Progression-Free Survival HR: 0.51
KRAS Wild type
  Overall Survival Median, months: 7.2 months
  Progression-Free Survival Median, months: 2.1 months
LN metastasis No
  Overall Survival Median, months: 7.2 months
  Progression-Free Survival Median, months: 2.5 months
[4]
  Overall Survival HR: 1.06
  Progression-Free Survival HR: 1.27
LN metastasis Yes
  Overall Survival Median, months: 8.3 months
  Progression-Free Survival Median, months: 3.0 months
Liver metastasis No
  Overall Survival Median, months: 8.7 months
  Progression-Free Survival Median, months: 4.2 months
[5]
  Overall Survival HR: 0.57
  Progression-Free Survival HR: 0.43
Liver metastasis Yes
  Overall Survival Median, months: 7.2 months
  Progression-Free Survival Median, months: 2.3 months
Lung metastasis No
  Overall Survival Median, months: 6.3 months
  Progression-Free Survival Median, months: 2.5 months
[6]
  Overall Survival HR: 1.44
  Progression-Free Survival HR: 1.19
Lung metastasis Yes
  Overall Survival Median, months: 8.3 months
  Progression-Free Survival Median, months: 2.9 months
Number of metastases >2
  Overall Survival Median, months: 8.1 months
  Progression-Free Survival Median, months: 2.9 months
[7]
  Overall Survival HR: 1.63
  Progression-Free Survival HR: 1.22
